Read-outs that look alike come from different tables or passages of the source.

The target in the assay is AaORCO+AaOR8 receptors (Aedes aegypti, UniProt A0A1S4FVR6). Description: Automatic planar patch-clamp electrophysiology in U2OS cells co-transduced with AaORCO and AaOR8. Type of assay: cell-based. As to the method:
In this example, U2OS cells were co-transduced with AaORCO and AaOR8 channel subunits overnight and stimulated with increasing concentrations of 1-octen-3-ol ligand in the absence and presence of 10 μM VUAA1.
Cell culture and transduction. U2OS and HEK293 cells were grown on T150 flasks with Dulbecco's modified eagle medium supplemented with 10% fetal bovine serum and 1% Penicillin/Streptomycin in a 37° C. incubator under a 5% CO2 atmosphere. For transductions, cell cultures were pooled at 1.5×10^6 cell/ml, centrifuged at 1000 xg for 5 min, and resuspended in fresh medium. Resuspended cultures were inoculated at a multiplicity of 1-20 pfu/cell with baculovirus encoding AaORCO or AaORCO with AaOR8, AaOR2 or AaOR11 and AgORCO with AgOR8 or AgOR2. A further untransduced culture was used as a control. Cultures were maintained in an incubator at 37° C. and used for electrophysiology or FLIPR measurements 1-4 days after infection.
Planar Patch Clamp Electrophysiology Assay. […] On the day of the assay, the cells were lifted, washed once in PBS and loaded on a Nanion Synchropatch384 instrument and currents were recorded using voltage clamp in standard whole-cell configuration at-90 mV on an 8-hole version chip (NPC-384T).
(In patch-clamp work, channel activity is measured electrically.)

AaORCO+AaOR8 receptors, sequence (Q178U6 whole entry): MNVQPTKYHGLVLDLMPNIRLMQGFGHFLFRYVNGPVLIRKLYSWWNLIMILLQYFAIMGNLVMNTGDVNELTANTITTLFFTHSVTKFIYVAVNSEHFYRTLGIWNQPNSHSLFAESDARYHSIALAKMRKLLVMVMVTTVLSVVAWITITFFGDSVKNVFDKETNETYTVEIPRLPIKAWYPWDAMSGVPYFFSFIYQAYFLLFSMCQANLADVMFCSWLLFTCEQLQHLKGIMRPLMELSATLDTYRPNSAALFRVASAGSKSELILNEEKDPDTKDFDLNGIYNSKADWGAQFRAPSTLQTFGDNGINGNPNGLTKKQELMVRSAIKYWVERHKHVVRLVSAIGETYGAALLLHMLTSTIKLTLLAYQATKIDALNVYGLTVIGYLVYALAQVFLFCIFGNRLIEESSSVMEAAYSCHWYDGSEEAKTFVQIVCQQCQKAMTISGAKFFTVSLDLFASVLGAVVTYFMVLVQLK
AaORCO+AaOR8 receptors, sequence (A0A1S4FVR6 entry or part of it): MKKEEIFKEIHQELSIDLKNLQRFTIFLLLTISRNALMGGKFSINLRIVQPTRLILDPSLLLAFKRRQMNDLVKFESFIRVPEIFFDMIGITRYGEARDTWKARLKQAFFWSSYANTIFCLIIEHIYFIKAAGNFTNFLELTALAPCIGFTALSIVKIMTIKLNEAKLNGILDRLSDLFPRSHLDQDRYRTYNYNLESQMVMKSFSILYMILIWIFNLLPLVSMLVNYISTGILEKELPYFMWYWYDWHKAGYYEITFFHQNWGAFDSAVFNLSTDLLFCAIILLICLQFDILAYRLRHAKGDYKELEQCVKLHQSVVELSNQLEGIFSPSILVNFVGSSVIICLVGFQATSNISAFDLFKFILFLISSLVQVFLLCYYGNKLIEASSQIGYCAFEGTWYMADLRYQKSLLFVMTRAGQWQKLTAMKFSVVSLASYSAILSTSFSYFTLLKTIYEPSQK

As to `C=CC(O)CCCCC` (centres unmarked) [1-octen-3-ol], the EC50 by setting is: (absence of VUAA1, read-out: EC50, dose-dependent activation of AaORCO+AaOR8 channel currents) 537 nM; (presence of 10 μM VUAA1, read-out: EC50, activation of AaORCO+AaOR8 channel currents in the presence of VUAA1 (left-shift)) 101 nM.
